A word on the inhibition: it is the percentage by which the read-out fell short of the control.

One test concerns airway epithelial cell line 4MBr-5. Description: 36Cl chloride efflux inhibition in airway epithelial cell line 4MBr-5. The test is classed as cell-based. Particulars: 20 min, 10 μg/ml test compound, 20 minutes efflux, 4MBr-5 cells, expressed as a percentage of the maximal inhibition observed with NPPB. The procedure: This compound provides a suitable reference standard against which to judge other chloride channel blockers. […] In the test described below maximal inhibition of chloride efflux is observed at 300 μM, with 20% inhibition evident at the standard test concentration of 10 μg/ml.
The airway epithelial cell line 4MBr-5 was obtained from ATCC and cells were cultured in 35 mm diameter wells on six well plates until cell layers were confluent. Cells were loaded with Na^36 CI solutions at 2.5 μCi/well after washing the cell monolayer free of […] culture medium. Washing and loading were performed in Hepes buffer (pH 7.4) containing 130 mM NaCI, 5.4 mM KCI, 1.8 mM CaCI2, 1.0 mM NaH2 PO4, 0.8 mM MgSO4 and 5.5 mM glucose. After a loading period of 60 minutes the cell layer was rapidly washed with 50 mM Hepes in 241 mM sucrose containing […] MgSO4 and the buffer replaced with 2 ml of ^36 CI^- free buffer containing 10 μg/ml test compound, or vehicle control. (Test compound was also present for the final ten minutes of the loading procedure). After 20 minutes efflux was stopped and the radioactivity remaining in the cells determined by liquid scintillation spectrometry after lysis of the cells. After subtraction of the counts found in cells treated with vehicle the increased counts were compared to the corresponding value observed with NPPB and expressed as a percentage of the maximal inhibition.
Take `COc1ccc(C=C2C(=O)C(O)=C(c3ccccc3)C2=O)cc1` [2/24]: the inhibition at 10 µg/mL was found to be 28.6%.

`O=C1C(=Cc2ccc(Cl)cc2Cl)C(=O)C(c2ccccc2)=C1O` [15/36] gave an inhibition at 10 µg/mL of 37.7%.

Consider `O=C1C(=Cc2ccc(C(F)(F)F)cc2)C(=O)C(c2ccccc2)=C1O` [16/37], for which the inhibition at 10 µg/mL was 58.2%.

In the case of `O=C1C(=Cc2ccc(-c3ccccc3)cc2)C(=O)C(c2ccccc2)=C1O` [17/38], the inhibition at 10 µg/mL came out at 83.5%.

Turning to `COc1ccc(C2=C(O)C(=O)C(=Cc3ccccc3)C2=O)cc1` [18/1], at 10 µg/mL the inhibition was 24%.

`O=C1C(=Cc2ccccc2)C(=O)C(c2ccc(Cl)cc2)=C1O` [19/39]: the inhibition at 10 µg/mL amounted to 31.1%.

For `CCN(CC)c1ccc(C=C2C(=O)C(O)=C(c3ccccc3)C2=O)cc1` [20/40], the inhibition at 10 µg/mL turned out to be 22.7%.

`O=C1C(=Cc2ccc(OCc3ccccc3)cc2)C(=O)C(c2ccccc2)=C1O` [21/41] had an inhibition at 10 µg/mL of 50.6%.

Compound `COc1ccc(C2=C(O)C(=O)C(=Cc3ccc(Cl)c(Cl)c3)C2=O)cc1` [22/42] registered an inhibition at 10 µg/mL of 65%.

On to `O=C1C(=Cc2ccccc2O)C(=O)C(c2ccccc2)=C1O` [23/43], for which 10 µg/mL produced 36.4% inhibition.

For `O=C(O)c1cc([N+](=O)[O-])ccc1NCCCc1ccccc1` [NPPB, 2-(3-phenylpropyl)amino-5-nitrobenzoic acid, reference compound], the inhibition at 10 µg/mL amounted to 20%.

Staying with this test, now noted: 20 min, 4MBr-5 cells, 36Cl efflux, read-out: concentration at which maximal inhibition of chloride efflux is observed.
Regarding `O=C(O)c1cc([N+](=O)[O-])ccc1NCCCc1ccccc1` [NPPB, 2-(3-phenylpropyl)amino-5-nitrobenzoic acid, reference compound], the IC (maximal) worked out at 300 µM.
